Target: T1, USP25 (USP25-His6, Boston Biochem E-546) (Homo sapiens, UniProt Q9UHP3)
T1 construct: His6; purchased Boston Biochem E-546
T1 sequence (Q9UHP3 1-1055): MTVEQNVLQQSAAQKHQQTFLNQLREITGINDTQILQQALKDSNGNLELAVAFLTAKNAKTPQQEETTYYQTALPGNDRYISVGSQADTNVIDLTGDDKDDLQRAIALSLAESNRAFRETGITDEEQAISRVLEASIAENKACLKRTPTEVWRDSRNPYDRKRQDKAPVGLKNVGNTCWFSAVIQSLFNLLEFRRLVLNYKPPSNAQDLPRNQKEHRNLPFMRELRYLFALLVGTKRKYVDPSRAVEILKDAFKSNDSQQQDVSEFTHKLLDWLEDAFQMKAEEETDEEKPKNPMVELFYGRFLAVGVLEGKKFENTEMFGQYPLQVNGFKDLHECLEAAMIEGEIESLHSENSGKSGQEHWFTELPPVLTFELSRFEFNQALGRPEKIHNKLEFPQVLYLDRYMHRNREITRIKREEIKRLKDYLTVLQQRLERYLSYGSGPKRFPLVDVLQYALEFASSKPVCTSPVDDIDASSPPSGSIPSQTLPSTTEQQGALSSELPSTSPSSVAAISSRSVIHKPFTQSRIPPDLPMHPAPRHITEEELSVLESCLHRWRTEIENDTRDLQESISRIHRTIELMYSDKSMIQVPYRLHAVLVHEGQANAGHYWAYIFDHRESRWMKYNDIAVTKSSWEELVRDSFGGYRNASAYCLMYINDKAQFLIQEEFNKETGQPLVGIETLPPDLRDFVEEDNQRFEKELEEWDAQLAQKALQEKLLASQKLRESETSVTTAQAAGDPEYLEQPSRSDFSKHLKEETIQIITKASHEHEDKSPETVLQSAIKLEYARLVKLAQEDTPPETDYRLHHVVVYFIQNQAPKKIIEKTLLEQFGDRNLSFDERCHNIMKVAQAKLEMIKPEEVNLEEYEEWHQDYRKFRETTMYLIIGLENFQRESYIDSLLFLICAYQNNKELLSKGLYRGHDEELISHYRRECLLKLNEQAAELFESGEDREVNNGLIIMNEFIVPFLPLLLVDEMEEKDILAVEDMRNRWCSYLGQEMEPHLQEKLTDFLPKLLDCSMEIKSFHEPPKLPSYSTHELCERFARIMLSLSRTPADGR
Assay: Ubiquitin-Rhodamine 110 Assay for USP25 Activity, Example A-2
Format: biochemical
Conditions: Ubiquitin-Rhodamine 110 assay, Example A-2; read-out: USP25 A-2 IC50 range
Summary of the method: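 75 pM USP25-His6 was preincubated 30 min with compound (10-point 3-fold series, 25 μM–1.3 nM) in pH 8.0 Tris buffer with BME, BGG and Triton X-100. Then 25 nM Ub-Rh110 (<<Km) was added for 45 min at room temperature, stopped with citric acid, fluorescence read at 485/535 nm, IC50 by 4-parameter fit.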

| SMILES | IC50 [µM] |
| --- | --- |
| CO[C@H]1CN(c2cc3c(cc2F)C[C@@H](NC(=O)c2sc4nc(C)ccc4c2N)CO3)C[C@@H]1N [Example 94, 3-amino-N-[(3R)-7-[(3S,4S)-3-amino-4-methoxypyrrolidin-1-yl]-6-fluoro-3,4-dihydro-2H-1-benzopyran-3-yl]-6-methylthieno[2,3-b]pyridine-2-carboxamide] | 0.2 to 2 |
| CO[C@H]1CN(c2cc(F)c3c(c2C#N)OC[C@H](NC(=O)c2sc4nc(C)ccc4c2N)C3)C[C@@H]1N [Example 175, 3-amino-N-[(3R)-7-[(3S,4S)-3-amino-4-methoxypyrrolidin-1-yl]-8-cyano-5-fluoro-3,4-dihydro-2H-1-benzopyran-3-yl]-6-methylthieno[2,3-b]pyridine-2-carboxamide] | > 2 |
| Cc1ccc2c(N)c(C(=O)N[C@H]3CCc4cc(N5CC6CNCC(C5)O6)c(C#N)cc4C3)sc2n1 [Example 109, 3-amino-N-[(2S)-7-cyano-6-{9-oxa-3,7-diazabicyclo[3.3.1]nonan-3-yl}-1,2,3,4-tetrahydronaphthalen-2-yl]-6-methylthieno[2,3-b]pyridine-2-carboxamide] | 0.2 to 2 |
| COC[C@H]1CNCCN1c1ccc2c(c1)OC[C@H](NC(=O)c1sc3nc(C)ccc3c1N)C2 [Example 156, 3-amino-N-[(3R)-7-[(21)-2-(methoxymethyl)piperazin-1-yl]-3,4-dihydro-2H-1-benzopyran-3-yl]-6-methylthieno[2,3-b]pyridine-2-carboxamide] | 0.2 to 2 |
| Cc1ccc2c(N)c(C(=O)N[C@H]3COc4c(F)c(N5C[C@H]6C[C@@H]5CN6)cc(F)c4C3)sc2n1 [Example 111, 3-amino-N-[(3R)-7-[(1R,4R)-2,5-diazabicyclo[2.2.1]heptan-2-yl]-5,8-difluoro-3,4-dihydro-2H-1-benzopyran-3-yl]-6-methylthieno[2,3-b]pyridine-2-carboxamide] | 0.05 to 0.2 |
| CO[C@H]1CN(c2ccc3c(c2)OC[C@H](NC(=O)c2sc4nc(C)cnc4c2N)C3)C[C@H]1N [Example 148, 7-amino-N-[(3R)-7-[(3R,4S)-3-amino-4-methoxypyrrolidin-1-yl]-3,4-dihydro-2H-1-benzopyran-3-yl]-3-methylthieno[2,3-b]pyrazine-6-carboxamide] | 0.2 to 2 |
| COC[C@H]1CN(c2ccc3c(c2)OC[C@H](NC(=O)c2sc4nc(C)ccc4c2N)C3)C[C@@H]1N [Example 164, 3-amino-N-[(3R)-7-[(3R,4S)-3-amino-4-(methoxymethyl)pyrrolidin-1-yl]-3,4-dihydro-2H-1-benzopyran-3-yl]-6-methylthieno[2,3-b]pyridine-2-carboxamide] | 0.2 to 2 |
| Cc1ccc2c(N)c(C(=O)N[C@H]3COc4cc(N5CC6CNCC(C5)O6)c(C#N)c(F)c4C3)sc2n1 [Example 127, 3-amino-N-[(3R)-6-cyano-5-fluoro-7-{9-oxa-3,7-diazabicyclo[3.3.1]nonan-3-yl}-3,4-dihydro-2H-1-benzopyran-3-yl]-6-methylthieno[2,3-b]pyridine-2-carboxamide] | 0.05 to 0.2 |
| CCn1ccc2cc(C(=O)N[C@H]3CCc4cc(N5C[C@H](OC)[C@@H](N)C5)ccc4C3)cnc21 [Example 132, N-[(2S)-6-[(3S,4S)-3-amino-4-methoxypyrrolidin-1-yl]-1,2,3,4-tetrahydronaphthalen-2-yl]-1-ethyl-1H-pyrrolo[2,3-b]pyridine-5-carboxamide] | > 2 |
| Cc1ccc2c(N)c(C(=O)N[C@H]3COc4nc(N5CC6CNCC(C5)C6(F)F)ccc4C3)sc2n1 [Example 113, 3-amino-N-[(3R)-7-{9 9-difluoro-3,7-diazabicyclo[3.3.1]nonan-3-yl}-2H b,3H,4H-pyrano[2,3-b]pyridin-3-yl]-6-methylthieno[2,3-b]pyridine-2-carboxamide] | 0.2 to 2 |
| CO[C@H]1CN(c2ccc3c(c2)OC[C@H](NC(=O)c2sc4nc(C)ccc4c2N)C3)C[C@H]1N [Example 122, 3-amino-N-[(3R)-7-[(3R,4S)-3-amino-4-methoxypyrrolidin-1-yl]-3,4-dihydro-2H-1-benzopyran-3-yl]-6-methylthieno[2,3-b]pyridine-2-carboxamide] | 0.2 to 2 |
| Cc1ccc2c(N)c(C(=O)N[C@H]3COc4cc(N5CC6CCC(C5)N6)c(C#N)c(F)c4C3)sc2n1 [Example 126, 3-amino-N-[(3R)-6-cyano-7-{3,8-diazabicyclo[3.2.1]octan-3-yl}-5-fluoro-3,4-dihydro-2H-1-benzopyran-3-yl]-6-methylthieno[2,3-b]pyridine-2-carboxamide] | 0.001 to 0.05 |
| CCO[C@H]1CN(c2ccc3c(c2)OC[C@H](NC(=O)c2sc4nc(C)ccc4c2N)C3)C[C@@H]1N [Example 115, 3-amino-N-[(3R)-7-[(3S,4S)-3-amino-4-ethoxypyrrolidin-1-yl]-3,4-dihydro-2H-1-benzopyran-3-yl]-6-methylthieno[2,3-b]pyridine-2-carboxamide] | 0.2 to 2 |
| CO[C@@H]1CN(c2ccc3c(c2)OC[C@H](NC(=O)c2sc4nc(C)ccc4c2N)C3)CC[C@H]1N [Example 129, 3-amino-N-[(3R)-7-[(3R,4R)-4-amino-3-methoxypiperidin-1-yl]-3,4-dihydro-2H-1-benzopyran-3-yl]-6-methylthieno[2,3-b]pyridine-2-carboxamide] | 0.2 to 2 |
| Cc1ccc2c(N)c(C(=O)N[C@H]3COc4cc(N5C[C@H](OC6CC6)[C@@H](N)C5)ccc4C3)sc2n1 [Example 140, 3-amino-N-[(3R)-7-[(3S,4S)-3-amino-4-cyclopropoxypyrrolidin-1-yl]-3,4-dihydro-2H-1-benzopyran-3-yl]-6-methylthieno[2,3-b]pyridine-2-carboxamide] | 0.2 to 2 |
| CO[C@H]1CN(c2ccc3c(c2)CC[C@H](NC(=O)c2sc4nc(C)sc4c2N)C3)C[C@@H]1N [Example 133, 6-amino-N-[(2S)-6-[(3S,4S)-3-amino-4-methoxypyrrolidin-1-yl]-1,2,3,4-tetrahydronaphthalen-2-yl]-2-methylthieno[2,3-d][1,3]thiazole-5-carboxamide] | > 2 |
| CO[C@H]1CN(c2cc(F)c3c(c2C#N)OC[C@H](NC(=O)c2sc4nc(C)cnc4c2N)C3)C[C@@H]1N [Example 174, 7-amino-N-[(3R)-7-[(3S,4S)-3-amino-4-methoxypyrrolidin-1-yl]-8-cyano-5-fluoro-3,4-dihydro-2H-1-benzopyran-3-yl]-3-methylthieno[2,3-b]pyrazine-6-carboxamide] | > 2 |
| Cc1ccc2c(N)c(C(=O)N[C@H]3COc4cc([C@H]5C[C@@H](N)C5)ccc4C3)sc2n1 [Example 123, 3-amino-6-methyl-N-[(3R)-7-[(1s,3S)-3-aminocyclobutyl]-3,4-dihydro-2H-1-benzopyran-3-yl]thieno[2,3-b]pyridine-2-carboxamide] | 0.2 to 2 |
| Cc1ccc2c(N)c(C(=O)N[C@H]3CCc4cc(N5CC6CNCC(C5)O6)c(F)cc4C3)sc2n1 [Example 101, 3-amino-N-[(2S)-7-fluoro-6-{9-oxa-3,7-diazabicyclo[3.3.1]nonan-3-yl}-1,2,3,4-tetrahydronaphthalen-2-yl]-6-methylthieno[2,3-b]pyridine-2-carboxamide] | 0.2 to 2 |
| Cc1cnc2c(N)c(C(=O)N[C@H]3COc4c(F)c(N5CC6CCC(C5)N6)cc(F)c4C3)sc2n1 [Example 107, 7-amino-N-[(3R)-7-{3,8-diazabicyclo[3.2.1]octan-3-yl}-5,8-difluoro-3,4-dihydro-2H-1-benzopyran-3-yl]-3-methylthieno[2,3-b]pyrazine-6-carboxamide] | 0.001 to 0.05 |
| CO[C@H]1CN(c2cc(F)c3c(c2)CC[C@H](NC(=O)c2sc4nc(C)ccc4c2N)C3)C[C@@H]1N [Example 136, 3-amino-N-[(2S)-6-[(3S,4S)-3-amino-4-methoxypyrrolidin-1-yl]-8-fluoro-1,2,3,4-tetrahydronaphthalen-2-yl]-6-methylthieno[2,3-b]pyridine-2-carboxamide] | > 2 |
| Cc1ccc2c(N)c(C(=O)N[C@H]3COc4cc(C5CC6COCC(C5)N6)ccc4C3)sc2n1 (stereo partly drawn) [Example 125, 3-amino-6-methyl-N-[(3R)-7-{3-oxa-9-azabicyclo[3.3.1]nonan-7-yl}-3,4-dihydro-2H-1-benzopyran-3-yl]thieno[2,3-b]pyridine-2-carboxamide] | 0.05 to 0.2 |
| COC[C@@H]1CN(c2ccc3c(c2)OC[C@H](NC(=O)c2sc4nc(C)ccc4c2N)C3)CCN1 [Example 158, 3-amino-N-[(3R)-7-[(3S)-3-(methoxymethyl)piperazin-1-yl]-3,4-dihydro-2H-1-benzopyran-3-yl]-6-methylthieno[2,3-b]pyridine-2-carboxamide] | 0.2 to 2 |

— patent US11524966B1 (Valo Early Discovery, Inc., priority 2017, dated 2022)
